This is an account of results in EP4737449A1 (Changchun Genescience Pharmaceutical Co., Ltd., priority 2023, dated 2025).

SMILES strings stand for the structures.

In this assay the target is T1, p53-Y220C mutant protein (Homo sapiens, UniProt P04637, Y220C).
T1 construct: The recombinant Y220C p53 DBD protein with his-tag
The experiment in a line: In vitro DNA binding activity assay (TR-FRET). Conditions: concentration required to increase the binding activity of protein to DNA by 50%. Type of assay: biochemical. As for the experimental part: The activity of the compound to modulate the binding of the p53-Y220C mutant protein to DNA was detected using TR-FREt (Time-Resolved Fluorescence Resonance Energy Transfer). The recombinant Y220C p53 DBD protein with his-tag and the DNA sequence with biotin label were prepared firstly. Donor Eu(Europium)-SA(Streptavidin) can be bound to the DNA sequence through biotin, receptor for his antibody attached to alphaphycocyanin(APC, allophycocyanin), and his antibody can be bound to the Y220C p53 DBD protein with his-tag. When exposed to an excitation light with a wavelength of 340 nm, the donor Eu(Europium)-SA(Streptavidin) can emit fluorescence with a wavelength of 615 nm. If the donor and the receptor are close to each other, the donor will transfer part of the energy to the receptor and produce fluorescence with a wavelength of 665 nm. […] If there is no interaction, only 615 nm fluorescence is produced. • 1) Experimental steps • a. Adding 4 µL of dilute compound solution to each well of a 384-well microplate; • a. Adding 4 µL of 4X P53 working solution to each well of the 384-well microplate; • c. Sealing the 384-well microplate and equilibrating the system at room temperature for 60 min; • d. Adding 4 µl of biotin DNA solution to the 384-well microplate; • e. Adding 4 µl of 4X test solution (MAb Anti-6His-Eu and streptavidin-d2) to each well of the 384-well microplate; • f. Incubating overnight in the dark; and • g. Reading data of 665 nm and 615 nm wavelengths on the BMG multifunctional microplate reader. • 2) Data analysis • a. Calculating the ratio for each well (Ratio665 nm/615 nm-Ratiobackground); • b. Calculating the activity percentage (%activity) as follows: C = (Ave_Ac−Ave_Ba)/(Ave_Dc−Ave_Bd) [formula] R data = (A−Ave_Ba−CD)/(D−Ave_Bd)*(Ave_Dc−Ave_Bd) [formula] % Activity = R data/Ave_VC*100 [formula] • A: Fluorescence intensity of the sample at 665 nm; D: Fluorescence intensity of the sample at 615 nm; • Ba: Background fluorescence intensity of the culture plate at 665 nm; Bd: Background fluorescence intensity of the culture plate at 615 nm; • Dc: Background fluorescence intensity of HIS-E at 615 nm; Ac: Background fluorescence intensity of streptavidin-d2 at 665 nm); and • c. Calculating SC150 and plotting dose-effect curve
Compared to the absence of the compound of the present invention, the activation percentage of binding of the p53 mutant protein to DNA in the presence of the compound of the present invention is expressed as SC150, which indicates the concentration of the compound required to increase the DNA binding activity of the p53 mutant protein by 50%. The SC150 is calculated using Prism™.

For the compound `CC(C)c1cc(C(=O)NCC#Cc2nn3c(N[C@@H]4CCN(C)C[C@@H]4F)cccc3c2CC(F)(F)F)on1` [Compound 323, N-[3-(7-{[(3S,4R)-3-fluoro-1-methylpiperidin-4-yl]amino}-3-(2,2,2-trifluoroethyl)pyrazolo[1,5-a]pyridin-2-yl)prop-2-yn-1-yl]-3-isopropylisoxazole-5-carboxamide], the SC150 stood at 57 nM.
Then `CC(C)Cn1ncc(C(=O)NCC#Cc2nn3c(N[C@@H]4CCN(C)C[C@@H]4F)cccc3c2CC(F)(F)F)c1N` [Compound 286, 5-amino-N-[3-(7-{[(3S,4R)-3-fluoro-1-methylpiperidin-4-yl]amino}-3-(2,2,2-trifluoroethyl)pyrazolo[1,5-a]pyridin-2-yl)prop-2-yn-1-yl]-1-isobutyl-1H-pyrazole-4-carboxamide], with 8 nM; and `CCn1cc(C(=O)NCC#Cc2nn3c(N[C@@H]4CCN(C)C[C@@H]4F)cccc3c2CC(F)(F)F)c(Cl)n1` [Compound 344], with 56 nM; and `CN1CC[C@@H](Nc2cccc3c(CC(F)(F)F)c(C#CCNC(=O)c4cnn(C(C)(C)C(F)(F)F)c4)nn23)[C@@H](F)C1` [Compound 148, N-[3-(7-{[(3S,4R)-3-fluoro-1-methylpiperidin-4-yl]amino}-3-(2,2,2-trifluoroethyl)pyrazolo[1,5-a]pyridin-2-yl)prop-2-yn-1-yl]-1-(1,1,1-trifluoro-2-methylprop-2-yl)-1H-pyrazole-4-carboxamide], with 27 nM.
In the case of `CN1CC[C@@H](Nc2cccc3c(CC(F)(F)F)c(C#CCNC(=O)c4cnn(C5CC5)c4)nn23)[C@@H](F)C1` [Compound 005, 1-cyclopropyl-N-[3-(7-{[(3S,4R)-3-fluoro-1-methylpiperidin-4-yl]amino}-3-(2,2,2-trifluoroethyl)pyrazolo[1,5-a]pyridin-2-yl)prop-2-yn-1-yl]-1H-pyrazole-4-carboxamide], the SC150 is recorded as 16 nM.
Then `CN1CC[C@@H](Nc2cccc3c(CC(F)(F)F)c(C#CCNC(=O)c4cn(C5CC5)nc4N)nn23)[C@@H](F)C1` [Compound 350, 3-amino-N-[3-(7-{[(3S,4R)-3-fluoro-1-methylpiperidin-4-yl]amino}-3-(2,2,2-trifluoroethyl)pyrazolo[1,5-a]pyridin-2-yl)prop-2-yn-1-yl]-1-(cyclopropyl)-1H-pyrazole-4-carboxamide], with 13 nM; and `Cc1nn(C(C)(C)C)c(N)c1C(=O)NCC#Cc1nn2c(N[C@@H]3CCN(C)C[C@@H]3F)cccc2c1CC(F)(F)F` [Compound 288, 5-amino-1-tert-butyl-N-[3-(7-{[(3S,4R)-3-fluoro-1-methylpiperidin-4-yl]amino}-3-(2,2,2-trifluoroethyl)pyrazolo[1,5-a]pyridin-2-yl)prop-2-yn-1-yl]-3-methyl-1H-pyrazole-4-carboxamide], with 69 nM; and `CN1CC[C@@H](Nc2cccc3c(CC(F)(F)F)c(C#CCNC(=O)c4cnn(C(F)(F)F)c4)nn23)[C@@H](F)C1` [Compound 024, N-[3-(7-{[(3S,4R)-3-fluoro-1-methylpiperidin-4-yl]amino}-3-(2,2,2-trifluoroethyl)pyrazolo[1,5-a]pyridin-2-yl)prop-2-yn-1-yl]-1-(trifluoromethyl)-1H-pyrazole-4-carboxamide], with 58 nM.
Then `CNc1c(C(=O)NCC#Cc2nn3c(N[C@@H]4CCN(C)C[C@@H]4F)cccc3c2CC(F)(F)F)cnn1C(C)(C)C` [Compound 307, 1-(tert-butyl)-N-[3-(7-{[(3S,4R)-3-fluoro-1-methylpiperidin-4-yl]amino}-3-(2,2,2-trifluoroethyl)pyrazolo [1,5-a]pyridin-2-yl)prop-2-yn-1-yl]-5-(methylamino)-1H-pyrazole-4-carboxamide], with 32 nM.
Compound `CCc1c(C#CCNC(=O)c2cnn(C(C)(C)C)c2N)nn2c(N[C@@H]3CCN(C)C[C@@H]3F)cccc12` [Compound 348, 5-amino-1-tert-butyl-N-[3-(3-ethyl-7-{[(3S,4R)-3-fluoro-1-methylpiperidin-4-yl]amino}-pyrazolo[1,5-a]pyridin-2-yl)prop-2-yn-1-yl]-1H-pyrazole-4-carboxamide] yielded an SC150 of 28 nM.
In the case of `CN1CC[C@@H](Nc2cccc3c(CC(F)(F)F)c(C#CCNC(=O)c4cn(C(C)(C)C)nn4)nn23)[C@@H](F)C1` [Compound 142, 1-tert-butyl-N-[3-(7-{[(3S,4R)-3-fluoro-1-methylpiperidin-4-yl]amino}-3-(2,2,2-trifluoroethyl)pyrazolo[1,5-a]pyridin-2-yl)prop-2-yn-1-yl]-1H-1,2,3-triazole-4-carboxamide], the SC150 was 29 nM.
The value for `CN1CC[C@@H](Nc2cccc3c(CC(F)(F)F)c(C#CCNC(=O)c4cnn(C(C)(C)CF)c4)nn23)[C@@H](F)C1` [Compound 234, N-[3-(7-{[(3S,4R)-3-fluoro-1-methylpiperidin-4-yl]amino}-3-(2,2,2-trifluoroethyl)pyrazolo[1,5-a]pyridin-2-yl)prop-2-yn-1-yl]-1-(1-fluoro-2-methylpropan-2-yl)-1H-pyrazole-4-carboxamide] was 21 nM; that for `CN1CC[C@@H](Nc2cccc3c(CC(F)(F)F)c(C#CCNC(=O)c4ncn(C)n4)nn23)[C@@H](F)C1` [Compound 324, N-[3-(7-{[(3S,4R)-3-fluoro-1-methylpiperidin-4-yl]amino}-3-(2,2,2-trifluoroethyl)pyrazolo[1,5-a]pyridin-2-yl)prop-2-yn-1-yl]-1-methyl-1H-1,2,4-triazole-3-carboxamide] was 29 nM; that for `CN1CC[C@@H](Nc2cccc3c(CC(F)(F)F)c(C#CCNC(=O)c4cnn(C5(C)CC5)c4)nn23)[C@@H](F)C1` [Compound 010, N-[3-(7-{[(3S,4R)-3-fluoro-1-methylpiperidin-4-yl]amino}-3-(2,2,2-trifluoroethyl)pyrazolo[1,5-a]pyridin-2-yl)prop-2-yn-1-yl]-1-(1-methylcyclopropyl)-1H-pyrazole-4-carboxamide] was 9 nM.
The value for `COCC(O)CN1CCC(Nc2cccc3c(CC(F)(F)F)c(C#CCNC(=O)c4cnn(C(C)(C)C)c4N)nn23)CC1` (stereo not shown) [Compound 371, 5-amino-1-tert-butyl-N-[3-(7-{[1-(2-hydroxy-3-methoxypropy)piperidin-4-yl]amino}-3-(2,2,2-trifluoroethyl)pyrazolo[1,5-a]pyridin-2-yl)prop-2-yn-1-yl]-1H-pyrazole-4-carboxamide] was 12 nM.
Then `CN1CCC(Nc2cccc3c(CC(F)(F)F)c(C#CCNC(=O)c4cnn(C(C)(C)C)c4N)nn23)CC1` [Compound 370, 5-amino-1-tert-butyl-N-(3-(7-[(1-methylpiperidin-4-yl)amino]-3-(2,2,2-trifluoroethyl)pyrazolo[1,5-a]pyridin-2-yl)prop-2-yn-1-yl)-1H-pyrazole-4-carboxamide], with 9 nM.
On to `CN1CC[C@@H](Nc2cccc3c(CC(F)(F)F)c(C#CCNC(=O)c4cnn(C(C)(C)C5CC5)c4)nn23)[C@@H](F)C1` [Compound 346, 1-(2-cyclopropylprop-2-yl)-N-[3-(7-{[(3S,4R)-3-fluoro-1-methylpiperidin-4-yl]amino}-3-(2,2,2-trifluoroethyl)pyrazolo[1,5-a]pyridin-2-yl)prop-2-yn-1-yl]-1H-pyrazole-4-carboxamide], for which the SC150 is 18 nM.
The value for `Cc1cc(N)c(C(=O)NCC#Cc2nn3c(N[C@@H]4CCN(C)C[C@@H]4F)cccc3c2CC(F)(F)F)cn1` [Compound 294, 4-amino-N-[3-(7-{[(3S,4R)-3-fluoro-1-methylpiperidin-4-yl]amino}-3-(2,2,2-trifluoroethyl)pyrazolo[1,5-a]pyridin-2-yl)prop-2-yn-1-yl]-6-methylnicotinamide] was 39 nM; that for `CN1CC[C@@H](Nc2cccc3c(CC(F)(F)F)c(C#CCNC(=O)c4cnn(CCO)c4)nn23)[C@@H](F)C1` [Compound 310, N-[3-(7-{[(3S,4R)-3-fluoro-1-methylpiperidin-4-yl]amino}-3-(2,2,2-trifluoroethyl)pyrazolo[1,5-a]pyridin-2-yl)prop-2-yn-1-yl]-1-(2-hydroxyethyl)-1H-pyrazole-4-carboxamide] was 11 nM.
